The values below come from patent US8680012B2, “4-phenyl-pyrane-3,5-diones,4-phenyl-thiopyrane-3,6-diones and cyclohexanetriones as novel herbicides” (Syngenta Crop Protection LLC, priority 2006, dated 2014).

Holding throughout (assay type): in vivo
For assay [1], the system named is Alopecurus myosuroides (ALOMY). The assay can be described thus: Example A pre-emergence herbicidal activity, glasshouse pot test. The following applies: 480 h, evaluated 20 days after spraying, read-out: Pre-emergence activity ALOMY (100=total damage to plant; 0=no damage to plant); for pest or weed control at 250 g/ha: rate 250 g/ha; for pest or weed control at 500 g/ha: rate 500 g/ha. On the procedure: (§1) Seeds of a variety of test species were sown in standard soil in pots. After cultivation for one day (pre-emergence) or after 10 days cultivation (post-emergence) under controlled conditions in a glasshouse, the plants were sprayed with an aqueous spray solution derived from the formulation of the technical active ingredient in 0.6 ml acetone and 45 ml formulation solution containing 10.6% Emulsogen EL (Registry number 61791-12-6), 42.2% N-methylpyrrolidone, 42.2% dipropylene glycol monomethyl ether (Registry number 34590-94-8) and 0.2% X-77 (Registry number 11097-66-8). The test plants were then grown in a greenhouse under optimum conditions until, 15 days later for post-emergence and 20 days for pre-emergence, the test was evaluated (100=total damage to plant; 0=no damage to plant).
(§2) Alopecurus myosuroides (ALOMY), Avena fatua (AVEFA), Lolium perenne (LOLPE), Setaria faberi (SETFA), Digitaria sanguinalis (DIGSA), Echinochloa crus-galli (ECHCG)

The subject of assay [2] is Avena fatua (AVEFA). The description is as above. The settings on record: 480 h, evaluated 20 days after spraying, read-out: Pre-emergence activity AVEFA (100=total damage to plant; 0=no damage to plant); for pest or weed control at 250 g/ha: rate 250 g/ha; for pest or weed control at 500 g/ha: rate 500 g/ha. On the procedure:
as §1, §2

Assay [3] deals with Digitaria sanguinalis (DIGSA). The assay is described as above. The following applies: 480 h, evaluated 20 days after spraying, read-out: Pre-emergence activity DIGSA (100=total damage to plant; 0=no damage to plant); for pest or weed control at 250 g/ha: rate 250 g/ha; for pest or weed control at 500 g/ha: rate 500 g/ha. On the procedure:
as §1, §2

Assay [4] concerns Echinochloa crus-galli (ECHCG). The assay is described as above. The following applies: 480 h, evaluated 20 days after spraying, read-out: Pre-emergence activity ECHCG (100=total damage to plant; 0=no damage to plant); for pest or weed control at 250 g/ha: rate 250 g/ha; for pest or weed control at 500 g/ha: rate 500 g/ha. On the procedure: as §1, §2
Assay [5] concerns Lolium perenne (LOLPE). The assay is described as above. The settings on record: 480 h, evaluated 20 days after spraying, read-out: Pre-emergence activity LOLPE (100=total damage to plant; 0=no damage to plant); for pest or weed control at 250 g/ha: rate 250 g/ha; for pest or weed control at 500 g/ha: rate 500 g/ha. How it is done: as §1, §2
Assay [6] has as its system Setaria faberi (SETFA). Described as above. The following applies: 480 h, evaluated 20 days after spraying, read-out: Pre-emergence activity SETFA (100=total damage to plant; 0=no damage to plant); for pest or weed control at 250 g/ha: rate 250 g/ha; for pest or weed control at 500 g/ha: rate 500 g/ha. On the procedure: as §1, §2
Assay [7] relates to Alopecurus myosuroides (ALOMY). The experiment in a line: Example A post-emergence herbicidal activity, glasshouse pot test. The following applies: 360 h, rate 125 g/ha, evaluated 15 days after spraying, read-out: Post-emergence activity ALOMY (100=total damage to plant; 0=no damage to plant). How it is done: as §1, §2
The subject of assay [8] is Avena fatua (AVEFA). The assay is described as above. The settings on record: 360 h, rate 125 g/ha, evaluated 15 days after spraying, read-out: Post-emergence activity AVEFA (100=total damage to plant; 0=no damage to plant). How it is done:
as §1, §2

The test system of assay [9] is Digitaria sanguinalis (DIGSA). The assay is described as above. The settings on record: 360 h, rate 125 g/ha, evaluated 15 days after spraying, read-out: Post-emergence activity DIGSA (100=total damage to plant; 0=no damage to plant). On the procedure: as §1, §2
In assay [10] the test system is Echinochloa crus-galli (ECHCG). The description is as above. The following applies: 360 h, rate 125 g/ha, evaluated 15 days after spraying, read-out: Post-emergence activity ECHCG (100=total damage to plant; 0=no damage to plant). How it is done: as §1, §2
The test system of assay [11] is Lolium perenne (LOLPE). The description is as above. The following applies: 360 h, rate 125 g/ha, evaluated 15 days after spraying, read-out: Post-emergence activity LOLPE (100=total damage to plant; 0=no damage to plant). On the procedure:
as §1, §2

The subject of assay [12] is Setaria faberi (SETFA). Described as above. The settings on record: 360 h, rate 125 g/ha, evaluated 15 days after spraying, read-out: Post-emergence activity SETFA (100=total damage to plant; 0=no damage to plant). On the procedure:
as §1, §2

On to `Cc1ccc(-c2ccc(Cl)cc2Cl)cc1C1=C(O)C(C)(C)OC(C)(C)C1=O` [Compound A-49], for which the pest or weed control at 250 g/ha was 0% in assay [1]; 20% in the assay with Avena fatua (AVEFA) [2]; 50% in [3]; 100% in assay [4]; 20% in the assay with Lolium perenne (LOLPE) [5]; 50% in the assay on Setaria faberi (SETFA) [6]. For the same compound, the pest or weed control at 125 g/ha was determined as 50% in [7]; 70% in the assay with Avena fatua (AVEFA) [8]; 70% in assay [9]; 80% in [10]; 80% in the assay with Lolium perenne (LOLPE) [11]; 50% in the assay on Setaria faberi (SETFA) [12].
For the compound `CCc1ccc(-c2ccc(Cl)c(F)c2)cc1C1=C(O)C(C)(C)OC(C)(C)C1=O` [Compound A-43], the pest or weed control at 250 g/ha in assay [1] is 80%; with Avena fatua (AVEFA) [2], 90%; in assay [3] it was 100%; in assay [4], 100%; in the assay with Lolium perenne (LOLPE) [5] it was 80%; in the assay on Setaria faberi (SETFA) [6] it was 100%. The pest or weed control at 125 g/ha in assay [7] came to 80%; in the assay on Avena fatua (AVEFA) [8], 90%; in assay [9], 100%; in assay [10], 100%; in the assay on Lolium perenne (LOLPE) [11] it was 80%; with Setaria faberi (SETFA) [12], 100%.
Regarding `CCc1ccc(-c2ccc(Cl)cc2)cc1C1=C(O)COCC1=O` [Compound A-2], the pest or weed control at 500 g/ha in assay [1] was found to be 50%; in the assay on Avena fatua (AVEFA) [2], 50%; in assay [3] it was 10%; in [4], 100%; with Lolium perenne (LOLPE) [5], 60%; in the assay with Setaria faberi (SETFA) [6] it was 70%. Further, the pest or weed control at 125 g/ha in [7] worked out at 20%; with Avena fatua (AVEFA) [8], 20%; in assay [9], 50%; in assay [10], 80%; in the assay with Lolium perenne (LOLPE) [11], 0%; with Setaria faberi (SETFA) [12] it was 80%.
For the compound `CCc1ccc(-c2ccc(Cl)cc2)cc1C1=C(O)C(C)(C)[S+]([O-])C(C)(C)C1=O` (stereo not drawn) [Compound C-2], the pest or weed control at 250 g/ha was 10% in assay [1]; 10% in the assay on Avena fatua (AVEFA) [2]; 100% in assay [3]; 100% in [4]; 10% in the assay with Lolium perenne (LOLPE) [5]; 70% in the assay on Setaria faberi (SETFA) [6]. Moreover, the pest or weed control at 125 g/ha in assay [7] was 70%; in the assay with Avena fatua (AVEFA) [8], 70%; in [9], 90%; in [10] it was 100%; in the assay on Lolium perenne (LOLPE) [11], 60%; in the assay with Setaria faberi (SETFA) [12], 90%.
Regarding `CCCCC(=O)OC1=C(c2cc(-c3ccc(Cl)cc3)ccc2CC)C(=O)C(C)(C)OC1(C)C` [Compound D-2], the pest or weed control at 500 g/ha was found to be 30% in assay [1]; 60% in the assay on Avena fatua (AVEFA) [2]; 100% in [3]; 80% in assay [4]; 80% with Lolium perenne (LOLPE) [5]; 100% in the assay with Setaria faberi (SETFA) [6]. Moreover, the pest or weed control at 125 g/ha in [7] was determined as 20%; in the assay with Avena fatua (AVEFA) [8] it was 10%; in assay [9], 90%; in [10], 90%; in the assay with Lolium perenne (LOLPE) [11], 20%; in the assay on Setaria faberi (SETFA) [12] it was 90%.
Take `COC(=O)OC1=C(c2cc(-c3ccc(Cl)cc3)ccc2C)C(=O)C(C)(C)OC1` [Compound D-5]: the pest or weed control at 500 g/ha was 0% in assay [1]; 20% with Avena fatua (AVEFA) [2]; 60% in [3]; 50% in assay [4]; 0% in the assay on Lolium perenne (LOLPE) [5]; 20% in the assay with Setaria faberi (SETFA) [6]. Besides, the pest or weed control at 125 g/ha in [7] is 10%; in the assay on Avena fatua (AVEFA) [8] it was 40%; in assay [9], 20%; in assay [10] it was 60%; in the assay with Lolium perenne (LOLPE) [11], 40%; with Setaria faberi (SETFA) [12] it was 70%.
On to `CCc1ccc(-c2ccc(Cl)cc2)cc1C1=C(O)C(C)(C)SC(C)(C)C1=O` [Compound C-1], for which the pest or weed control at 500 g/ha worked out at 20% in [1]; 20% with Avena fatua (AVEFA) [2]; 30% in assay [3]; 50% in [4]; 30% in the assay with Lolium perenne (LOLPE) [5]; 30% in the assay with Setaria faberi (SETFA) [6]. Moreover, the pest or weed control at 125 g/ha in assay [7] is 50%; in the assay on Avena fatua (AVEFA) [8] it was 70%; in assay [9], 100%; in assay [10] it was 100%; with Lolium perenne (LOLPE) [11], 30%; with Setaria faberi (SETFA) [12] it was 80%.
For `Cc1ccc(-c2ccc(Cl)cc2)cc1C1=C(O)C(C)(C)OC(C)(C)C1=O` [Compound A-5], the pest or weed control at 500 g/ha worked out at 60% in assay [1]; 50% in the assay on Avena fatua (AVEFA) [2]; 100% in [3]; 100% in assay [4]; 50% in the assay with Lolium perenne (LOLPE) [5]; 100% with Setaria faberi (SETFA) [6]. For the same compound, the pest or weed control at 125 g/ha in assay [7] is 70%; with Avena fatua (AVEFA) [8], 70%; in assay [9], 100%; in assay [10] it was 100%; in the assay on Lolium perenne (LOLPE) [11], 70%; in the assay with Setaria faberi (SETFA) [12] it was 80%.
In the case of `Cc1ccc(-c2ccc(Cl)cc2)cc1C1=C(O)[C@@]2(C)CC[C@](C)(O2)C1=O` [Compound A-40], the pest or weed control at 250 g/ha in assay [1] turned out to be 30%; in the assay on Avena fatua (AVEFA) [2], 10%; in [3], 70%; in assay [4], 70%; in the assay with Lolium perenne (LOLPE) [5] it was 20%; with Setaria faberi (SETFA) [6] it was 70%. Besides, the pest or weed control at 125 g/ha in assay [7] amounted to 70%; with Avena fatua (AVEFA) [8], 60%; in assay [9], 70%; in assay [10], 100%; in the assay on Lolium perenne (LOLPE) [11] it was 60%; in the assay on Setaria faberi (SETFA) [12], 70%.
